This passage reports Ki results from BindingDB's records for doi:10.1111/j.1747-0285.2008.00752.x (Universitat Aut&Ogravenoma De Barcelona, 2009).

Holding throughout (assay): Inhibition Assay
In one assay the target is T1, Carboxypeptidase B2 (Homo sapiens, UniProt Q96IY4).
T1 sequence (Q96IY4 whole entry): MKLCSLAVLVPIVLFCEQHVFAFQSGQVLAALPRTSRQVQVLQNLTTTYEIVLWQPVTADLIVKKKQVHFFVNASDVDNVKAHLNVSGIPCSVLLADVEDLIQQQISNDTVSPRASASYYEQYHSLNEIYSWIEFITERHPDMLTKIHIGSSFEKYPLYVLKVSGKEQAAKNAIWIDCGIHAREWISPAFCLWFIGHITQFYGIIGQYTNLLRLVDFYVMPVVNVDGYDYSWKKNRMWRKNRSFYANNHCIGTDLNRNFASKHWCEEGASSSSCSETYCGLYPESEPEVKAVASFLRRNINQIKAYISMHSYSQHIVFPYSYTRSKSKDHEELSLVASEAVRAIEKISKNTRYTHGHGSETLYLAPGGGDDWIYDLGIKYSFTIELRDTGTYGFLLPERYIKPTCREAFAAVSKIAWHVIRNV
An excerpt: (§1) The aromatic compounds screening were characterized by molecular docking as well as by in vitro inhibition assay against carboxypeptidase(CPs) of different specifications and natural origin.

Another assay addresses T2, Carboxypeptidase A1 (Bos taurus, UniProt P00730).
T2 sequence (P00730 whole entry): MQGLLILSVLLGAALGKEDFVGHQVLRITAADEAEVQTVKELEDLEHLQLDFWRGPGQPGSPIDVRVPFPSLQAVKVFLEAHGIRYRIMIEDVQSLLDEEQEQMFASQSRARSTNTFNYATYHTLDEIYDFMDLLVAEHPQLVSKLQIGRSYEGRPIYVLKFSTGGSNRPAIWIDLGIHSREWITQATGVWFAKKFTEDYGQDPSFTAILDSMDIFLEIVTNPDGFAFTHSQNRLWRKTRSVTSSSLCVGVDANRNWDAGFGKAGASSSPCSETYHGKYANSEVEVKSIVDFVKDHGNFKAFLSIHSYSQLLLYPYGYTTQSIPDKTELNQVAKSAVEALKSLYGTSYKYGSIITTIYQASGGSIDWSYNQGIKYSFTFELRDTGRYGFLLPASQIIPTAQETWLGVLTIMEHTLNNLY
Source text: as §1

The next assay addresses T3, Carboxypeptidase B (Helicoverpa zea, UniProt Q3T905).
T3 sequence (Q3T905 whole entry): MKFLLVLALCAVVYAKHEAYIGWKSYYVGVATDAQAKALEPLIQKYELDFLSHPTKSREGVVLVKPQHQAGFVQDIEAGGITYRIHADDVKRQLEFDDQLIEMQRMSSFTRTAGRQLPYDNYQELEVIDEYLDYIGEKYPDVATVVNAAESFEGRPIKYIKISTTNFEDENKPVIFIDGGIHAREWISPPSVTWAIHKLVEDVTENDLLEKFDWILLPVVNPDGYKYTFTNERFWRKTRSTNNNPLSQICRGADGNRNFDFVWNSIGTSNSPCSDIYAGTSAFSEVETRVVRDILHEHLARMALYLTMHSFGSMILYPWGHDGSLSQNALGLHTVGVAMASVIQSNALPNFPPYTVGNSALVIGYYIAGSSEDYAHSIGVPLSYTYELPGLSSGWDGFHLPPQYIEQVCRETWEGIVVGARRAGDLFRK
Source text: as §1

Take `COc1ccc2[nH]c(=O)c(CN(CCO)C(=S)Nc3ccc(C)cc3)cc2c1` [1-(2-hydroxyethyl)-1-((6-methoxy-2-oxo-1,2-dihydroquinolin-3-yl)methyl)3-yl)methyl)-3-p-tolythiourea, 7]: the Ki on Carboxypeptidase B2 was determined as 22.5 µM; on Carboxypeptidase A1 it was 420 µM; on Carboxypeptidase B, 20.5 µM.

Regarding `O=C(Cn1nnc(-c2cccs2)n1)N1CCc2ccccc2C1` [1-(3,4-dihydroisoquinolin-2(1H)-yl)-2-(5thiophen-2-yl)-2H-tetrazol-2-yl)ethanone, 3], the values for the Ki on Carboxypeptidase B2, on Carboxypeptidase A1 and on Carboxypeptidase B were 32 µM, 520 µM and 62 µM, respectively.

On to `Cc1ccc(C(=O)CSc2nnc(COc3cccc4cccnc34)o2)cc1` [1-(4-methylphenyl)-2-[[5-(8-quinolinyloxymethyl)-1,3,4-oxadiazol-2-yl]thio]ethanone], for which the Ki at Carboxypeptidase B2 is 50 µM; on Carboxypeptidase A1, 32 µM; on Carboxypeptidase B, 14 µM.

In the case of `Cc1ccc2[nH]c(=O)c(CN(Cc3cccs3)C(=S)NC(C)c3ccccc3)cc2c1` (stereo not given) [1-((6-methyl-2-oxo-1,2-dihydroquinolin-3-yl)methyl)-3-(1-phenylethyl)-1-(thiophen-2-ylmethyl)thiourea, 10], the Ki at Carboxypeptidase B2 came out at 1.6 µM; on Carboxypeptidase A1, 3.8 µM; at Carboxypeptidase B, 0.58 µM.

On to `Cc1ccc(C(=O)CSc2nnc(COc3ccc4ccccc4c3)o2)cc1` [2-(5-(naphthalen-2-yloxy)methyl)-1,3,4-oxadiazol-2-ylthio)-1-p-tolylethanone, 5], for which the Ki at Carboxypeptidase B2 amounted to 1.9 µM; at Carboxypeptidase A1, 58 µM; on Carboxypeptidase B, 1.6 µM.

For `Nc1nccc2cc(CC(N)C(=O)O)ccc12` (stereo not given) [2-Amino-3-(1-aminoisoquinolin-6-yl)propanoic acid, 1], the Ki on Carboxypeptidase B2 is 220 µM; on Carboxypeptidase A1, 280 µM; on Carboxypeptidase B it was 100 µM.

For the compound `Nc1nccc2ccc(CC(N)C(=O)O)cc12` (stereo not given) [2-amino-3-(1-aminoisoquinolin-7-yl)propanoic acid, 2], the Ki at Carboxypeptidase B2 stood at 145 µM; at Carboxypeptidase A1, 290 µM; on Carboxypeptidase B, 129 µM.

For `O=C(O)CCSc1nnc(COc2cccc3ccccc23)n1-c1ccccc1` [3-(5-((naphthalen-1-yloxy)methyl)-4-pheny-4H-1,2,4-triazol-3-ythio)propanoic acid, 8], the Ki came out at 11.8 µM on Carboxypeptidase B2, 10.4 µM on Carboxypeptidase A1 and 35 µM on Carboxypeptidase B.

For the compound `O=c1[nH]c(CN(Cc2ccccc2)S(=O)(=O)c2ccc(F)cc2)nc2ccccc12` [N-benzyl-4-fluoro-N-((4-hydroxyquinazolin-2-yl)methylbenzensulfonamide, 9], the Ki worked out at 14.3 µM on Carboxypeptidase B2, 37 µM at Carboxypeptidase A1 and 82 µM on Carboxypeptidase B.

With `COC(=O)c1ccccc1NC(=S)N(Cc1ccco1)Cc1cc2cccc(C)c2[nH]c1=O` [methyl 2-(3-furan-2-ylmethyl)-3-((8-methyl-2-oxo-1,2,-dihydroquinolin-3-yl)methyl)thioureido)benzoate, 11], the Ki was determined as 13.3 µM on Carboxypeptidase B2, 15 µM at Carboxypeptidase A1 and 1.2 µM on Carboxypeptidase B.
